Consider eleven compounds from ChEMBL document CHEMBL1201862, “PubChem BioAssay data set” (2004).

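How tested: cells in 96-well plates exposed to compound for 48 hours at five concentrations. At the GI50, growth is halved.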 The source made the active and inactive calls. Rule as the data show it: active = GI50 up to about 1.1 µM and inactive = higher.

Test systems include A549; T47D; IGROV-1; SW-620; CAKI-1; HCC 2998; OVCAR-4; ACHN; Hs-578T; 786-0; SN12C; OVCAR-8; MCF7; HT-29; Malme-3M; K562; NCI-H23; SF-295; M14.
Holding throughout (test): NCI tumour cell line growth inhibition, 48 h

For the compound `CCN1CCC(O)(/C=C/c2cccc(C)c2)C(C(=O)/C=C/c2cccc(C)c2)C1` (centres undefined), the GI50 with A549 is 2.29 µM (inactive); in the assay on T47D it was 2.7 µM (inactive); in the assay on IGROV-1, 1.94 µM (inactive); in the assay on SW-620 it was 2.29 µM (inactive); with CAKI-1, 2 µM (inactive); in the assay with HCC 2998, 1.6 µM (inactive). For the same compound, the GI50 in the assay with OVCAR-4 is 4.31 µM (inactive); in the assay on ACHN, 1.59 µM (inactive); in the assay on Hs-578T, 2.33 µM (inactive); in the assay on 786-0, 2.26 µM (inactive); in the assay on SN12C, 2.47 µM (inactive); in the assay on OVCAR-8, 2.87 µM (inactive). For the same compound, the GI50 with MCF7 was 1.9 µM (inactive); in the assay on HT-29 it was 1.52 µM (inactive); in the assay on Malme-3M, 1.57 µM (inactive); in the assay with K562, 2.98 µM (inactive); in the assay on NCI-H23, 2.21 µM (inactive); in the assay with SF-295, 2.28 µM (inactive). Moreover, the GI50 with M14 is 2.58 µM (inactive).

With `CCC(C)NC(=S)N/N=C(\C)c1ccccn1` (centres undefined), the GI50 was 0.0946 µM (active) in the assay on A549; < 0.01 µM (active) in the assay on T47D; < 0.01 µM (active) in the assay on IGROV-1; < 0.0132 µM (active) with SW-620; < 0.01 µM (active) with CAKI-1; 0.447 µM (active) with HCC 2998. The GI50 in the assay on OVCAR-4 was 1.31 µM (inactive); in the assay with ACHN, < 0.01 µM (active); in the assay on Hs-578T it was 0.396 µM (active); in the assay with 786-0, 0.171 µM (active); in the assay with SN12C, 0.893 µM (active); in the assay on OVCAR-8, 0.126 µM (active). Further, the GI50 in the assay on MCF7 is < 0.01 µM (active); in the assay with HT-29, < 0.01 µM (active); with Malme-3M, 1.83 µM (inactive); in the assay on K562, < 0.01 µM (active); in the assay with NCI-H23, < 0.021 µM (active); with SF-295, 0.215 µM (active). The GI50 in the assay with M14 was 0.0372 µM (active).

On to `CN(C)c1ccc(/C(Br)=C2\OC(=O)c3ccccc32)cc1`, for which the GI50 in the assay on A549 was > 100 µM (inactive); in the assay on T47D it was 11.3 µM (inactive); in the assay with IGROV-1, > 100 µM (inactive); in the assay on SW-620, 93.5 µM (inactive); with CAKI-1, > 100 µM (inactive); with HCC 2998, > 100 µM (inactive). In addition, the GI50 with OVCAR-4, in the assay with ACHN, in the assay on Hs-578T, with 786-0, in the assay with SN12C and with OVCAR-8 was > 100 µM (inactive) throughout. Moreover, the GI50 with MCF7 is 0.759 µM (active); in the assay on HT-29, 42.3 µM (inactive); with Malme-3M, 67.1 µM (inactive); in the assay on K562 it was 59.6 µM (inactive); in the assay on NCI-H23, > 100 µM (inactive); in the assay on SF-295 it was 76.2 µM (inactive). In addition, the GI50 with M14 was > 100 µM (inactive).

Turning to `CC(C)c1ccc2c(c1)/C(=C1/Nc3ccccc3C1=O)C(=O)N2`, the GI50 with A549 was 15.3 µM (inactive); with T47D, 0.557 µM (active); with IGROV-1, 1.45 µM (inactive); in the assay on SW-620, 43.3 µM (inactive); in the assay on CAKI-1, 14.3 µM (inactive); in the assay on HCC 2998, 19.2 µM (inactive). Moreover, the GI50 was 1.7 µM (inactive) with OVCAR-4; 3.71 µM (inactive) in the assay with ACHN; 7.64 µM (inactive) in the assay on Hs-578T; 3.52 µM (inactive) in the assay with 786-0; 20.9 µM (inactive) in the assay on SN12C; 10.6 µM (inactive) with OVCAR-8. The GI50 is 0.0188 µM (active) with MCF7; 26.8 µM (inactive) in the assay with HT-29; 46.8 µM (inactive) with Malme-3M; 33.7 µM (inactive) in the assay with K562; 24.4 µM (inactive) in the assay with NCI-H23; 14.8 µM (inactive) in the assay with SF-295. In addition, the GI50 in the assay on M14 was 33.6 µM (inactive).

Take `COc1cc(C2c3cc4c(cc3OC(N3CCCC3)C2C)OCO4)cc(OC)c1OC` (centres undefined): the GI50 in the assay on A549 is 0.989 µM (active); in the assay with T47D, 63.1 µM (inactive); in the assay with IGROV-1 it was 0.813 µM (active); with SW-620, 0.366 µM (active); in the assay with CAKI-1, 0.664 µM (active); in the assay on HCC 2998 it was 1.34 µM (inactive). Further, the GI50 in the assay on OVCAR-4 was 2.31 µM (inactive); in the assay on ACHN, 1.47 µM (inactive); with Hs-578T, 0.445 µM (active); in the assay on 786-0, 0.729 µM (active); with SN12C it was 0.757 µM (active); in the assay with OVCAR-8, 0.832 µM (active). The GI50 in the assay on MCF7 is 0.296 µM (active); with HT-29 it was 0.395 µM (active); with Malme-3M it was 0.578 µM (active); in the assay with K562, 0.361 µM (active); in the assay with NCI-H23 it was 0.548 µM (active); with SF-295, 0.303 µM (active). The GI50 in the assay on M14 is 0.34 µM (active).

As for `CN/N=C(\C)C(CN(C)C)C(c1ccccc1)c1c(O)c2ccccc2oc1=O` (centres undefined), the GI50 in the assay on A549 is > 100 µM (inactive); with T47D, 18.7 µM (inactive); in the assay with IGROV-1, > 100 µM (inactive); in the assay with SW-620 it was > 100 µM (inactive); in the assay with CAKI-1, > 100 µM (inactive); with HCC 2998, > 100 µM (inactive). Also, the GI50 in the assay on OVCAR-4 was 99.1 µM (inactive); with ACHN, > 100 µM (inactive); with Hs-578T it was > 100 µM (inactive); with 786-0, > 100 µM (inactive); in the assay with SN12C, > 100 µM (inactive); in the assay with OVCAR-8 it was > 100 µM (inactive). Moreover, the GI50 with MCF7 is > 100 µM (inactive); in the assay with HT-29, > 100 µM (inactive); in the assay with Malme-3M, 78.9 µM (inactive); in the assay with K562, > 100 µM (inactive); with NCI-H23 it was > 100 µM (inactive); in the assay on SF-295, > 100 µM (inactive). Further, the GI50 in the assay with M14 is > 100 µM (inactive).

As to `O=C1c2ccccc2CC12Cc1ccccc1C2`, the GI50 in the assay on A549 was 37.3 µM (inactive); with T47D, 36.2 µM (inactive); in the assay with IGROV-1, 87.5 µM (inactive); with SW-620, > 100 µM (inactive); in the assay on CAKI-1, 48.3 µM (inactive); in the assay on HCC 2998, 18.5 µM (inactive). Moreover, the GI50 with OVCAR-4 is 16.7 µM (inactive); in the assay on ACHN it was 63.1 µM (inactive); in the assay with Hs-578T, 52.2 µM (inactive); in the assay on 786-0 it was 36 µM (inactive); with SN12C, 69.3 µM (inactive); in the assay with OVCAR-8 it was 80.4 µM (inactive). The GI50 was 53.5 µM (inactive) with MCF7; 23.4 µM (inactive) with HT-29; 70 µM (inactive) with Malme-3M; 34.8 µM (inactive) with K562; > 100 µM (inactive) in the assay with NCI-H23; > 100 µM (inactive) in the assay with SF-295. The GI50 in the assay with M14 was 49.1 µM (inactive).

For the compound `CC(C)/C=N\N1C(N)=C(C#N)C(C#N)(C#N)C1C(C)C` (centres undefined), the GI50 is 60.4 µM (inactive) with A549; 48.9 µM (inactive) in the assay with T47D; 39.9 µM (inactive) with IGROV-1; 34.6 µM (inactive) in the assay on SW-620; 85.1 µM (inactive) with CAKI-1; 34.4 µM (inactive) with HCC 2998. In addition, the GI50 with OVCAR-4 was 52.1 µM (inactive); in the assay on ACHN, 65.3 µM (inactive); with Hs-578T, 88.5 µM (inactive); in the assay on 786-0, 60.7 µM (inactive); in the assay with SN12C, 69.8 µM (inactive); with OVCAR-8, 25.1 µM (inactive). For the same compound, the GI50 is 55.5 µM (inactive) in the assay with MCF7; 27.5 µM (inactive) with HT-29; > 100 µM (inactive) in the assay with Malme-3M; 42.1 µM (inactive) in the assay with K562; 64.9 µM (inactive) with NCI-H23; > 100 µM (inactive) with SF-295. Also, the GI50 in the assay with M14 is 66.1 µM (inactive).

Turning to `COc1cc2c(/C=C3/C(=O)N(c4ccccc4)c4ccccc43)c(Cl)[nH]c2cc1C`, the GI50 was 3.41 µM (inactive) in the assay with A549; 2.07 µM (inactive) with T47D; 2.7 µM (inactive) in the assay on IGROV-1; 2.84 µM (inactive) in the assay on SW-620; 3.89 µM (inactive) in the assay on CAKI-1; 2.37 µM (inactive) in the assay on HCC 2998. Also, the GI50 is 2.59 µM (inactive) in the assay with OVCAR-4; 3.44 µM (inactive) in the assay with ACHN; 4.56 µM (inactive) in the assay with Hs-578T; 3.15 µM (inactive) with 786-0; 2.31 µM (inactive) in the assay with SN12C; 2.12 µM (inactive) with OVCAR-8. Further, the GI50 in the assay on MCF7 was 3.01 µM (inactive); in the assay on HT-29, 3.09 µM (inactive); with Malme-3M, 4.29 µM (inactive); with K562, 2.84 µM (inactive); with NCI-H23, 2.58 µM (inactive); in the assay with SF-295 it was 2.85 µM (inactive). For the same compound, the GI50 in the assay with M14 was 3.18 µM (inactive).

As for `COc1cc(/C=C/C(=O)c2c([O-])on[n+]2-c2ccccc2)ccc1O`, the GI50 with A549 was 4.09 µM (inactive); in the assay with T47D, 2.77 µM (inactive); in the assay with IGROV-1, 2.86 µM (inactive); in the assay on SW-620, 2.18 µM (inactive); with CAKI-1, 3 µM (inactive); with HCC 2998 it was 2.27 µM (inactive). Besides, the GI50 was 1.9 µM (inactive) with OVCAR-4; 2.32 µM (inactive) with ACHN; 2.43 µM (inactive) with Hs-578T; 2 µM (inactive) in the assay with 786-0; 2.03 µM (inactive) with SN12C; 2.4 µM (inactive) with OVCAR-8. Also, the GI50 was 3.49 µM (inactive) with MCF7; 2.37 µM (inactive) with HT-29; 2.78 µM (inactive) in the assay on Malme-3M; 2.7 µM (inactive) with K562; 2.69 µM (inactive) in the assay with NCI-H23; 7.89 µM (inactive) in the assay with SF-295. In the assay with M14, the GI50 was 3.43 µM (inactive).

On to `CNCCCNC1(c2cc3ccccc3s2)CCCCC1`, for which the GI50 in the assay with A549 was 7 µM (inactive); in the assay on T47D, 4.92 µM (inactive); in the assay with IGROV-1 it was 12.8 µM (inactive); in the assay with SW-620 it was 12.3 µM (inactive); in the assay on CAKI-1, 10.1 µM (inactive); in the assay with HCC 2998, 1.29 µM (inactive). Moreover, the GI50 in the assay with OVCAR-4 was 13.5 µM (inactive); in the assay on ACHN, 14 µM (inactive); in the assay with Hs-578T, 13.2 µM (inactive); in the assay with 786-0, 3.47 µM (inactive); in the assay on SN12C, 5.52 µM (inactive); in the assay on OVCAR-8, 14.5 µM (inactive). For the same compound, the GI50 is 4.12 µM (inactive) in the assay on MCF7; 2.46 µM (inactive) with HT-29; 2.28 µM (inactive) in the assay with Malme-3M; 1.98 µM (inactive) in the assay with K562; 16.4 µM (inactive) with NCI-H23; 14.2 µM (inactive) in the assay with SF-295. Further, the GI50 in the assay on M14 is 3.8 µM (inactive).
